Source: US8460635B2, “Fenretinide derivatives and uses thereof as therapeutic, diagnostic and imaging agents” (Albert Einstein College of Medicine of Yeshiva University, priority 2008, dated 2013)
pIC50: −log10 of the molar value. Where two headings read alike, the source gives them in different places. One block for each compound: values may come before it.

Tests used:
[1] = tested on: MON (INI1−/−) rhabdoid tumor cells; test: MTS survival assay of rhabdoid tumor cells; format: cell-based
Protocol: FIG. 1A-1D. Effect of 4HPR derivatives with phenyl group substitutions on survival of rhabdoid tumors cells. MON (INI1−/−) cells were treated with serial dilutions of the 4HPR, ATRA and 4HPR derivatives for three days. Survival assay was carried out as described using MTS assay kit. Percentage of cell survival plotted against concentration of drugs (Mean+/−SEM).
FIG. 2. Effect of fenretinide peptidomimitic derivatives on the survival of rhabdoid tumor cells in culture. % survival of MON rhabdoid tumor cells treated with fenretinide derivatives, when compared to the vehicle treated control. The data in all the panels represent the average of triplicate experiments, and the standard error is indicated.
(§1) The rhabdoid cell line (MON) (88) was cultured in RPMI 1640 supplemented with 10% fetal bovine serum, 2 mM L-glutamine, 50 U/ml penicillin, and 50 μg/ml streptomycin at 37° C. with 5% CO2 and 95% humidified air. 4-(Fenretinide) was either obtained from NCI or synthesized in house. Fenretinide or its synthetic derivatives were reconstituted in 100% ethanol as a 10 mM solution and the aliquots were stored frozen at −80° C., protected from light. Working solutions (50 μM or 200 μM) and serial dilutions were prepared by diluting the stock solution with culture medium, such that the concentration of ethanol was <2% in all dilutions.
Aliquots of 8×10^3 MON cells were plated in 96-well microdilution plates. Twenty four hours after seeding, the cells were treated with serial dilutions of each drug. Following incubation for 24 or more hours, each well was stained with 20 μl of MTS [3-(4,5-dimethylthiazol-2-yl)-5-(3-carboxymethoxyphenyl)-2-(4-sulfophenyl)-2H-tetrazolium, inner salt] that was mixed 20:1 V/V in PMS (phenazine methosulphate, CellTiter 96® AQueous Non-Radioactive Cell Proliferation Assay Kit, Promega, Madison, Wis.) added to each of the well in the microtiter plate containing 100 μl of culture medium. After 4 h incubation, the plates were analyzed by an ELISA plate reader (Wallac Victor, 1420 Multilabel Counter, Perkin Elmer) at 490 nm wave-length. Cell plating, drug treatment and survival assay were performed using the epMotion 5070 automated liquid handling robotic system (Eppendorff, Westbury, N.Y.).
Statistical analysis of the data was carried out using GraphPad Prism (San Diego, Calif.). Relative IC50 values were calculated using the nonlinear regression curve fit with sigmoidal dose response (variable slope) function. Relative IC50 is defined as the concentration giving a response exactly half way between the fitted top and bottom of the survival curve when graphed as percent inhibition versus the log of the concentration of compound. The fitting error, or standard error describes the error involved in fitting the curve.

[2] = Precipitation / solubility in cell culture medium; format: physicochemical
Protocol: as §1

[3] = tested on: MON (INI1−/−) rhabdoid tumor cells; test: MTS survival assay of rhabdoid tumor cells; format: cell-based; details: charcoal adsorbed serum
MON cells = test: FACS analysis of cell cycle and sub-G1 (apoptosis); format: cell-based; details: 2 days
Protocol: (§2) FIG. 3A-3B. Induction of cell cycle arrest and apoptosis by halogen derivatives of fenretinide. A. Cell cycle profile determined by FACS analysis of MON cells treated with either 5 or 10 μM concentrations of fenretinide and its derivatives for 2 days. Percentage of cells at various stages of cell cycle (G1, S and G2) is indicated. B. Percentage of MON cells at sub-G1 when exposed for 2 days to fenretinide and its derivatives.
as §2, with “4A-4B.” for “3A-3B.”, “peptidomimetic” for “halogen”
(§3) The effects of fenretinide, halogen substitutes, and peptidomimetic derivatives on cell cycle regulation and apoptosis were tested by using: i) cell survival assay (MTS); ii) FACS analysis; and iii) immunoblot analysis to determine the effect on Cyclin D1.

[4] = 200 mg/day (MTD), breast cancer patients, literature (ref 3); cited from earlier work
Cyclin D1 = test: Immunoblot analysis of Cyclin D1 expression; format: cell-based; details: biomarker expression, Table 3
Protocol: FIG. 5A-5B. Effect of fenretinide, its derivatives and peptidomimetic compounds on expression of Cyclin D1. Immunoblot analysis to determine the effect of fenretinide and its halogen substitutes (A) and peptidomimetic compounds (B). GAPDH is a loading control.
This assay was performed using a routine laboratory protocol as previously described using chemiluminescence detection method (30). The following antibodies were used: polyclonal α-cyclin D1 Ab-3 (NeoMarkers, Cat# RB-010-P0), monoclonal α-cyclin D1 DCS-6 (NeoMarkers, Cat# MS-210-P1), α-β-Actin (Sigma Cat# A5441) and α-Tubulin-α (Sigma, Cat # T5168).
as §3

tumor cell = details: in vitro, literature (ref 1); read-out: IC50s, suppression of tumor cell growth in vitro; cited from earlier work
[5] = MON cells, nonlinear regression, sigmoidal dose response, read-out: Relative IC50
[6] = MON rhabdoid cells, survival assay, values in text, read-out: IC50
[7] = regular FBS, read-out: IC50 (in regular FBS)

behaviour in cell culture medium (precipitation / insolubility) [2]: did not show any precipitation
Compound: CCC1=C(C)/C(=C/c2ccc(C(=O)Nc3ccc(O)c(I)c3)cc2)CCC1(C)C [Compound 11d, (E)-4-((3-ethyl-2,4,4-trimethylcyclohex-2-enylidene)methyl)-N-(4-hydroxy-3-iodophenyl)benzamide]
pIC50 [1, 5]: 5.50
pIC50 [1, 6]: 5.52
cytotoxic activity against rhabdoid tumor cells (in words) ([1]; compared with 4-HPR): more active when compared to parent Fenretinide

Compound: CC1=C(/C=C/C(C)=C/C=C/C(C)=C/C(=O)Nc2ccc(O)cc2)C(C)(C)CCC1 [Compound 4-HPR, N-(4-hydroxyphenyl)retinamide, reference compound]
pIC50 [3]: 5.70
% G1 (MON cells; 5 μM, Table 5): 86.32%
% G2 (MON cells; 5 μM, Table 5): 6.73%
% S (MON cells; 5 μM, Table 5): 6.95%
SubG1 (percentage of MON cells at sub-G1) (MON cells; 5 μM, Table 5): 37.12%
% G1 (MON cells; 5 μM, Table 6): 86.32%
% G2 (MON cells; 5 μM, Table 6): 6.49%
% S (MON cells; 5 μM, Table 6): 6.95%
SubG1 (percentage of MON cells at sub-G1) (MON cells; 5 μM, Table 6): 37.12%
% G1 (MON cells; 10 μM, Table 5): 85.41%
% G2 (MON cells; 10 μM, Table 5): 6.66%
% S (MON cells; 10 μM, Table 5): 7.93%
SubG1 (percentage of MON cells at sub-G1) (MON cells; 10 μM, Table 5): 73.98%
% G1 (MON cells; 10 μM, Table 6): 85.41%
% G2 (MON cells; 10 μM, Table 6): 7.60%
% S (MON cells; 10 μM, Table 6): 8.02%
SubG1 (percentage of MON cells at sub-G1) (MON cells; 10 μM, Table 6): 73.98%
plasma concentration [4]: 1000 nM
pIC50 [1, 5]: 4.83
pIC50 ([1]; MON cells, three days, compounds in FIG. 1A-1D, concentration of drug required to kill 50% of cells, read-out: IC50): 4.72
pIC50 [1, 6]: ~4.82
pIC50 [1, 7]: 4.72 to 4.92
Repression of Cyclin D1 (Cyclin D1): Yes
pIC50 (tumor cell): 5.00 to 6.00

behaviour in cell culture medium (precipitation / insolubility) [2]: precipitated in cell culture medium
Compound: CC1=C(/C=C/C(C)=C/C=C/C(C)=C/C(=O)Nc2ccc(I)cc2)C(C)(C)CCC1 [5(d), (2E,4E,6E,8E)-[3,7-Dimethyl-9-(2,6,6-trimethyl-1-cyclohexenyl)-nona-2,4,6,8-tetraenoylamino]-(4-iodo)phenylamide]
pIC50 [3]: < 4.82
pIC50 [1, 7]: < 4.30
